One test relates to Norwalk virus replicon. The test is described as follows: HuNoV (Norwalk virus) replicon assay in HG23 cells, qRT-PCR. Type of test: cell-based, human norovirus. As to conditions: 2.5 µM for 2 hours, genomes quantitated after 24 h by qRT-PCR, normalized to DMSO. How it is done: HG23 cells containing the Norwalk virus replicon plasmid under G418-selection were plated at 5×10^5 cells per well in 12-well plates and allowed to attach overnight. Afterwards, media was aspirated and replaced with fresh media containing DMSO, 5 µM WP1130, or 2.5 µM compound 9. DMSO and WP1130 remained on the cells for 24 hours, whereas compound 9 was removed after 2 hours. At the end of the experiment, media was aspirated, cells were washed once with PBS and total cellular RNA was isolated using the QIAGEN RNeasy Mini kit (QIAGEN, Valencia, CA). Following the manufacturer’s protocol, RNA was subjected to two rounds of DNase treatment. First, an on-column RNase-free DNase treatment (QIAGEN, Valencia, CA) was performed for 15 minutes at room temperature. After elution, another round of DNase treatment was performed using the DNA-free DNase removal kit (Ambion, Austin, TX). RNA concentration and purity were measured using a spectrophotometer, calculating the 260/280 ratio. RNA integrity (as well as the absence of DNA contamination) was confirmed by One-Step Reverse Transcription-Polymerase Chain Reaction (RT-PCR) using “No RT” controls. Norwalk virus genomes were then quantitated by qRT-PCR as previously described.
For orientation: In antiviral work, replicon cells carry a viral genome segment that copies itself.

The next test deals with MNV-1. Description: MNV-1 infection of RAW264.7 cells and plaque assay. The test is classed as cell-based, murine norovirus. As to conditions: RAW264.7 pre-treated 0.5 h with 2.5 µM; MOI 5; 8 h infection; plaque assay. How it is done: RAW264.7 cells were plated at a density of 5×10^5 cells/ml in each well of a 12-well plate and allowed to attach overnight. The following day, cells were incubated with either 5 µM WP1130 or 2.5 µM compound 9, for 30 min at 37°C. After incubation, cells were placed on ice for 1 hour where they were infected with MNV-1 at an MOI of 5. Cells were then washed three times with ice-cold PBS. Cells treated with compound 9 received media alone after washing, while media containing WP1130 or DMSO was added back to cells and the infection was allowed to proceed for 8 hours. Cells were freeze-thawed twice, and viral titers were determined by plaque assay as previously described.

Take `CCCC(NC(=O)/C(C#N)=C/c1nc(Cl)ccc1Cl)c1ccc(OCCN2CCOCC2)cc1` (centres unmarked) [Compound 9]: the “reduction of detectable Norwalk virus genomes” value in the test with Norwalk virus replicon is given as 84.7%. The “decrease in MNV-1 titers compared to DMSO-treated cells” value in the test with MNV-1 is “more than 2.5 logs”.
